According to US11491167B2, “Combination product of Bcl-2 inhibitor and chemotherapeutic agent and use thereof in the prevention and/or treatment of diseases” (ASCENTAGE PHARMA (SUZHOU) CO., LTD., priority 2018, dated 2022):
“And” between values parts separate entries of the source, which are not always exact repeats. Identical values can stand only once. Like-named read-outs stand apart in the source and are kept apart here.

Legend:
[1] = test system: human NCI-H146 (SCLC) mouse xenograft tumor model; details: 5 mice per group; for RTV on day 21 after administration (mean ± standard error) / T/C (%) on day 21 after administration / RTV on day 35 after administration (mean ± standard error) / T/C (%) on day 35 after administration: Compound 6 100 mg/kg p.o. qd; for RTV on day 21 after administration (mean ± standard error) / T/C (%) on day 21 after administration: TPT 1 mg/kg p.o. d1-5/w then d1-3/w; for RTV on day 35 after administration (mean ± standard error) / T/C (%) on day 35 after administration: TPT 1 mg/kg p.o.; for CR (tumor complete regression), mice on day 21 after administration / PR (tumor partial regression), mice on day 21 after administration: Compound 6 100 mg/kg, TPT 1 mg/kg; for CR (tumor complete regression), mice on day 46 after administration / PR (tumor partial regression), mice on day 46 after administration / Tumor remission rate % on day 46 after administration: day 46, observation after discontinuation; for Tumor remission rate % on day 21 after administration / Tumor remission rate % on day 46 after administration: remission including CR, PR and SD
Protocol: A subcutaneous xenograft tumor model of human tumor immunodeficient mice was established by cell inoculation: tumor cells in logarithmic growth phase were collected, counted and resuspended in 1×PBS, and the cell suspension concentration was adjusted to 2.5-5×10^7/mL. Using a 1 mL syringe ([…]), the tumor cells were inoculated subcutaneously in the right side of immunodeficient mice, 5-10×106/0.2 mL/mouse (All animals were purchased from Beijing Vital River Laboratory Animal Technology Co., Ltd. SCXK (Beijing) 2012-0001). All animal experiments were strictly in accordance with the laboratory animal use and management practices of GenePharma Co., Ltd. and Ascentage Pharma Group Co., Ltd. The calculation of relevant parameters referred to the Chinese CFDA “Guidelines for Non-Clinical Research Techniques of Cytotoxic Antitumor Drugs”. The NCI-H146 cells used in the Institute were a gift from Professor Wang Shaomeng of the University of Michigan, USA.
Animal body weight and tumor size were measured twice a week during the experiment. The conditions and death of the animals were observed every day. Routine monitoring included the effects of tumor growth and treatment on normal animal behaviors, including activity, feeding and drinking situations, weight gain or loss, eyes, coat and other abnormalities in the experimental animals. The deaths and clinical symptoms observed during the experiment were recorded in the raw data. The entire operations of administration, measurement of mouse body weight and tumor volume were performed in a clean bench. Plasma and tumor tissues were collected, weighed and photographed after the end of the last administration according to the experimental protocol. Plasma and tumor samples were frozen and stored at −80° C.
Tumor volume (TV) was calculated as: TV=a×b2/2, in which a and b represented the length and width of the tumor as measured, respectively. The relative tumor volume (RTV) was calculated as: RTV=Vt/V1, in which V1 was the tumor volume at the time of grouping and administration, and Vt was the tumor volume measured on a day after administration. […] Change of body weight %=(measured body weight−body weight at the time of grouping)/body weight at the time of grouping×100%.
The synergistic analysis was performed by the following formula 6: synergy factor=((A/C)×(B/C))/(AB/C); A=RTV value of the group administered with A only; B=RTV value of the group administered with B only; C=RTV value of the vehicle control group; AB=RTV value of the group administered with A and B in combination (Clarke R. Issues in experimental design and endpoint analysis in the study of experimental cytotoxic agents in vivo in breast cancer and other models [J]. Breast Cancer Research & Treatment, 1997, 46(2-3): 255-278).
(1) The experimental method was as described in Section (2) of Example 1. In the experiment, the SCLC mouse xenograft tumor model derived from human NCI-H146 tumor cells was established (Gould S E et al. Translational value of mouse models in oncology drug development. Nature medicine. 2015 21, 431-439). When the tumor volume reached 100-200 mm3, randomization was performed according to tumor volume and mouse body weight, and two independent in vivo experiments were performed on the model to evaluate the anti-tumor effects of the combination of Compound 6 and the chemotherapeutic agent TPT (topotecan).
In this experiment, Compound 6 was administered at a dose of 100 mg/kg, p.o., qd; TPT was administered at a dose of 1 mg/kg, p.o., d1-5/w (i.e., a 2-day interval after 5 days of administration).

[2] = test system: NCI-H146 (small cell lung cancer (SCLC)); assay: WST (CCK-8) anti-proliferation experiment, topotecan alone or combined with Compound 6; type: cell-based; details: Homo sapiens, NCI-H146, 72 h, topotecan alone, read-out: IC50 for proliferation inhibition

SMILES | RTV on day 21 after administration (mean ± standard error) [1] | T/C (%) on day 21 after administration [1] | RTV on day 35 after administration (mean ± standard error) [1] | T/C (%) on day 35 after administration [1] | CR (tumor complete regression), mice on day 21 after administration [1] | PR (tumor partial regression), mice on day 21 after administration [1] | CR (tumor complete regression), mice on day 46 after administration [1] | PR (tumor partial regression), mice on day 46 after administration [1] | Tumor remission rate % on day 21 after administration [1] | Tumor remission rate % on day 46 after administration [1] | IC50 ([2]; NCI-H146 (SCLC), first experiment) | IC50 ([2]; another NCI-H146 (SCLC) experiment) | CR (tumor complete regression), mice on day 21 after administration ([1]; listed as TPT) | PR (tumor partial regression), mice on day 21 after administration ([1]; listed as TPT)
O=C(NS(=O)(=O)c1ccc(NC[C@H]2COCCO2)c([N+](=O)[O-])c1)c1ccc(N2CCN(CC3=C(c4ccc(Cl)cc4)CC4(CCC4)CC3)CC2)cc1Oc1cnc2[nH]ccc2c1 [Compound 6, (S)-N-((4-(((1,4-dioxan-2-yl)methyl)amino)-3-nitrophenyl)sulfonyl)-2-((1H-pyrrolo[2,3-b]pyridin-5-yl)oxy)-4-(4-((6-(4-chlorophenyl)spiro[3.5]non-6-en-7-yl)methyl)piperazin-1-yl)benzamide] | 2.51 ± 0.25 | 49% | 4.89 ± 0.39 | 52% | 0/5CR, 0/5PR, | 0/5CR, 0/5PR, | 0/5CR, 0/5PR, | 0/5CR, 0/5PR, | 0% | 0% | – | – | – | –
CC[C@@]1(O)C(=O)OCc2c1cc1n(c2=O)Cc2cc3c(CN(C)C)c(O)ccc3nc2-1 [topotecan] | 0.26 ± 0.12 | 5% | 0.77 ± 0.35 | 8% | – | – | 2/5 | 0/5 | 100% | 40% | 127 nM | 68 nM | 2 and 2/5 | 3 and 3/5
